One data set has as its system rhinovirus HGP. As to the kind of experiment: Inhibition of viral cytopathogenic effect (rhinovirus HGP in HeLa cells). The format is cell-based. To be noted: Enterovirus, 48 h, read-out: Minimal Inhibitory Concentration against rhinovirus HGP. The method, then:
Inhibition of viral cytopathogenic effect
A suspension of HeLa cells (6×10^4) was mixed with rhinovirus HGP (3×10^3 PFU) (plaque forming units) and was plated in a microtest plate where serially diluted compounds to be tested were contained. The cells were then cultured with Eagle's minimum essential medium containing 2% calf serum, 1% tryptose phosphate broth, 100 μg/ml of streptomycin sulfate and 20 unit/ml of penicillin G. Viral c.p.e. (cytopathogenic effect) was observed by a microscope after 2 days culture at 33° C
The antiviral activity of the tested compounds is expressed by the minimal inhibitory concentration at which dose viral c.p.e. is inhibited by 50% as compared to the control culture.

Another data set can be described thus: Acute toxicity in mice. More on the design: species or system ddy mice. To be noted: mouse, in vivo, day 21.
For the next data set, the system named is Coxsackie virus B1. Description: Antiviral activity against lethal infection of Coxsackie virus B1 in mice. Format: in vivo, ddy mice. The following applies: up to 21 days. How it is done:
The antiviral activities of compounds of the invention were tested against lethal infection of Coxsackie virus B1 in mice. ddy Mice weighing about 15 g were infected intraperitoneally (i.p.) by about LD50 of the virus. The infected mice were then administered 4 times with the compounds either by oral (p.o.) or intravenous (i.v.) route at -2, 7, 22 and 31 hrs. after infection. The survivals were recorded up to 21 days.

Where [1] appears, read: ip, i.p. single dose, ddy mice 15 ~ 20 g, dissolved in dimethylsulfoxide, read-out: LD50, i.p. route.
The mark [2] stands for this setting: po, ddy mice, suspended in 0.5% carboxymethyl cellulose, read-out: LD50, p.o. route.

Experimental findings from US4327088A, “Phosphonooxy- or glycosyloxy-substituted acrylophenones, compositions and uses thereof” (priority 1979, dated 1982) are described below.

≈ marks a conversion by molar mass, not a printed value. Like-named read-outs stand apart in the source and are kept apart here.

Regarding `COc1cc(OC)c(C(=O)/C=C/c2ccc3c(c2)OCO3)c(OP(=O)(O)O)c1` [2',4'-dimethoxy-3,4-(methylenedioxy)-6'-(phosphonooxy)chalcone], the IC50 in the data set with rhinovirus HGP is 0.06 µg/mL (≈ 0.147 µM). For the same compound, the LD50 at 504 h in “Acute toxicity in mice” (setting [1]) is > 500 mg/kg; in “Acute toxicity in mice” (setting [2]) it was > 1000 mg/kg. For the same compound, the soluble in water result in the data set “Solubility in water” is given as “soluble in water”.
`COc1cc(OC)c(C(=O)/C=C/c2ccc(C)o2)c(OP(=O)(O)O)c1` [2',4'-dimethoxy-3-(5-methyl-2-furyl)-6'-(phosphonooxy)acrylophenone]: the IC50 with rhinovirus HGP was in the range of 0.04 to 0.1 µg/mL (≈ 0.109 to 0.272 µM). The LD50 at 504 h was > 500 mg/kg in “Acute toxicity in mice” (setting [1]) and > 1200 mg/kg in the data set “Acute toxicity in mice” (setting [2]). The soluble in water result in the data set “Solubility in water” is “soluble in water”.
On to `COc1cc(OC)c(C(=O)/C=C/c2ccc(SC)cc2)c(OP(=O)(O)O)c1` [2',4'-dimethoxy-4-(methylthio)-6'-(phosphonooxy)chalcone], for which the IC50 in the data set with rhinovirus HGP was found to be 0.02 µg/mL (≈ 0.0487 µM). The LD50 at 504 h in the data set “Acute toxicity in mice” (setting [1]) was > 500 mg/kg; in “Acute toxicity in mice” (setting [2]), > 1000 mg/kg. For the same compound, the soluble in water result in “Solubility in water” was “soluble in water”.
For `COc1cc(OC)c(C(=O)/C=C/c2ccc(C)cc2)c(OP(=O)(O)O)c1` [2',4'-dimethoxy-4-methyl-6'-(phosphonooxy)chalcone], the IC50 with rhinovirus HGP was determined as 0.02 µg/mL (≈ 0.0529 µM). Further, the figures for the LD50 at 504 h in “Acute toxicity in mice” (setting [1]) and in “Acute toxicity in mice” (setting [2]) were > 500 mg/kg and > 2000 mg/kg, respectively. Also, the soluble in water entry in “Solubility in water” is “soluble in water”.
The corresponding values for `COc1cc(OC)c(C(=O)/C=C/c2cccs2)c(OP(=O)(O)O)c1` [2',4'-dimethoxy-6'-(phosphonooxy)-3-(2-thienyl)acrylophenone] are 0.04 to 0.1 µg/mL (≈ 0.108 to 0.27 µM), > 500 mg/kg, > 1000 mg/kg and “soluble in water”.
Take `COc1ccc(/C=C/C(=O)c2c(OC)cc(OC)cc2OC(=O)c2ccc(OC)cc2)cc1` [2',4,4'-trimethoxy-6'-(4-methoxybenzoyloxy)chalcone]: in the data set with rhinovirus HGP, the IC50 lay in the range of 0.03 to 0.1 µg/mL (≈ 0.0669 to 0.223 µM). For the same compound, the values for the LD50 at 504 h in the data set “Acute toxicity in mice” (setting [1]) and in the data set “Acute toxicity in mice” (setting [2]) were > 500 mg/kg and > 1000 mg/kg, respectively.
On to `COc1ccc(/C=C/C(=O)c2c(OC)cc(OC)cc2OP(=O)(O)O)cc1` [2',4,4'-trimethoxy-6'-(phosphonooxy)chalcone], for which the IC50 in the data set with rhinovirus HGP lay within 0.03 to 0.1 µg/mL (≈ 0.0761 to 0.254 µM). Also, the “% Survival” value is 20% with Coxsackie virus B1 (5 mg/kg × 4 i.v.); 60% in the data set with Coxsackie virus B1 (10 mg/kg × 4 i.v.); 10% in the data set on Coxsackie virus B1 (20 mg/kg × 4 p.o.); 50% in the data set with Coxsackie virus B1 (40 mg/kg × 4 p.o.); 70% in the data set on Coxsackie virus B1 (80 mg/kg × 4 p.o.). The LD50 at 504 h was > 500 mg/kg in the data set “Acute toxicity in mice” (setting [1]) and > 1000 mg/kg in the data set “Acute toxicity in mice” (setting [2]). In the data set “Solubility in water”, the soluble in water entry is “soluble in water”.
As for `CC[N+](CC)(CC)CC(=O)Oc1cc(OC)cc(OC)c1C(=O)/C=C/c1ccc(OC)cc1.[Cl-]` [2',4,4'-trimethoxy-6'-(triethylammonioacetoxy) chalcone chloride], the IC50 in the data set on rhinovirus HGP stood at 0.01 µg/mL. Moreover, the 50% lethal dose (LD50) at 504 h in “Acute toxicity in mice” (setting [1]) is 180 mg/kg; in “Acute toxicity in mice” (setting [2]), > 1000 mg/kg. For the same compound, in “Solubility in water”, the soluble in water result is recorded as “soluble in water”.
On to `COc1ccc(/C=C/C(=O)c2c(OC)cc(OC)cc2OC(=O)c2ccc(OC)cc2OC)cc1` [2'-(2,4-dimethoxybenzoyloxy)-4,4',6'-trimethoxychalcone], for which the IC50 with rhinovirus HGP is 0.03 to 0.1 µg/mL (≈ 0.0627 to 0.209 µM). Further, the LD50 at 504 h was > 500 mg/kg in the data set “Acute toxicity in mice” (setting [1]) and > 1000 mg/kg in the data set “Acute toxicity in mice” (setting [2]).
Regarding `COc1ccc(/C=C/C(=O)c2c(OC)cc(OC)cc2O[C@@H]2O[C@H](COC(C)=O)[C@@H](OC(C)=O)[C@H](OC(C)=O)[C@H]2NC(C)=O)cc1` [2'-(2-acetamido-2-deoxy-3,4,6-tri-O-acetyl-β-D-glucopyranosyloxy)-4,4',6'-trimethoxychalcone], the IC50 in the data set on rhinovirus HGP was 0.1 to 0.3 µg/mL (≈ 0.155 to 0.466 µM). Also, the LD50 at 504 h in “Acute toxicity in mice” (setting [1]) was > 500 mg/kg; in the data set “Acute toxicity in mice” (setting [2]) it was > 2000 mg/kg.
As to `COc1ccc(/C=C/C(=O)c2c(OC)cc(OC)cc2O[C@@H]2O[C@H](CO)[C@@H](O)[C@H](O)[C@H]2NC(C)=O)cc1` [2'-(2-acetamido-2-deoxy-β-D-glucopyranosyloxy)-4,4',6'-trimethoxychalcone], in the data set with rhinovirus HGP, the IC50 was 3 to 10 µg/mL (≈ 5.8 to 19.3 µM). In addition, the LD50 at 504 h in the data set “Acute toxicity in mice” (setting [1]) was > 300 mg/kg; in “Acute toxicity in mice” (setting [2]), > 2000 mg/kg. In addition, the soluble in water result in “Solubility in water” is recorded as “soluble in water”.
Consider `COc1ccc(/C=C/C(=O)c2c(OC)cc(OC)cc2OC(=O)c2ccccc2)cc1` [2'-(benzoyloxy)-4,4',6'-trimethoxychalcone], for which, in the data set with rhinovirus HGP, the IC50 fell in the range of 0.03 to 0.1 µg/mL (≈ 0.0717 to 0.239 µM). The LD50 at 504 h in the data set “Acute toxicity in mice” (setting [1]) was > 500 mg/kg; in “Acute toxicity in mice” (setting [2]), > 1000 mg/kg.
As for `COc1ccc(/C=C/C(=O)c2c(OC)cc(OC)cc2OC(=O)OCc2ccccc2)cc1` [2'-(benzyloxycarbonyloxy)-4,4',6'-trimethoxychalcone], in the data set with rhinovirus HGP, the IC50 is 0.01 to 0.03 µg/mL (≈ 0.0223 to 0.0669 µM). Also, the LD50 at 504 h was > 500 mg/kg in the data set “Acute toxicity in mice” (setting [1]) and > 1000 mg/kg in the data set “Acute toxicity in mice” (setting [2]).
The corresponding values for `COc1ccc(/C=C/C(=O)c2c(OC)cc(OC)cc2OC(=O)c2ccco2)cc1` [2'-(furoyloxy)-4,4',6'-trimethoxychalcone] are 0.03 µg/mL (≈ 0.0735 µM), > 500 mg/kg and > 1000 mg/kg.
With `CCOc1cc(OC)cc(OP(=O)(O)O)c1C(=O)/C=C/c1ccc(OC)cc1` [2'-ethoxy-4,4'-dimethoxy-6'-(phosphonooxy)chalcone], the IC50 in the data set on rhinovirus HGP turned out to be 0.02 µg/mL (≈ 0.049 µM). Further, in the data set with Coxsackie virus B1 (40 mg/kg × 4 p.o.), the “% Survival” value is on record as 30%. Further, the LD50 at 504 h is > 500 mg/kg in “Acute toxicity in mice” (setting [1]) and > 1000 mg/kg in “Acute toxicity in mice” (setting [2]). Also, the soluble in water entry in the data set “Solubility in water” is given as “soluble in water”.
As to `COCOc1ccc(/C=C/C(=O)c2c(O)cc(OC)cc2OC)cc1` [2'-hydroxy-4',6'-dimethoxy-4-(methoxymethoxy)chalcone], the IC50 in the data set on rhinovirus HGP was 0.03 to 0.1 µg/mL (≈ 0.0871 to 0.29 µM). Besides, the LD50 at 504 h in the data set “Acute toxicity in mice” (setting [1]) was > 500 mg/kg; in the data set “Acute toxicity in mice” (setting [2]), > 1000 mg/kg.
Take `COc1cc(O)c(C(=O)/C=C/c2ccc3[nH]cnc3c2)c(OC)c1` [3-(5-benzimidazolyl)-2'-hydroxy-4',6'-dimethoxyacrylophenone]: in the data set with rhinovirus HGP, the IC50 was in the range of 0.1 to 0.3 µg/mL (≈ 0.308 to 0.925 µM). The LD50 at 504 h was > 100 mg/kg in “Acute toxicity in mice” (setting [1]) and > 1000 mg/kg in the data set “Acute toxicity in mice” (setting [2]).
On to `CCOc1cc(OC)c(C(=O)/C=C/c2ccc(OC)cc2)c(OP(=O)(O)O)c1` [4'-ethoxy-2',4-dimethoxy-6'-(phosphonooxy)chalcone], for which the IC50 with rhinovirus HGP came out at 0.03 µg/mL (≈ 0.0735 µM). In addition, the LD50 at 504 h in “Acute toxicity in mice” (setting [1]) is > 500 mg/kg; in “Acute toxicity in mice” (setting [2]), > 2000 mg/kg. Also, the soluble in water entry in “Solubility in water” was “soluble in water”.
For `COc1cc(O)c(C(=O)/C=C/c2ccc(OC(C)=O)cc2)c(OC)c1` [4-acetoxy-2'-hydroxy-4',6'-dimethoxychalcone], the IC50 in the data set on rhinovirus HGP is 0.3 µg/mL (≈ 0.876 µM). Further, the figures for the LD50 at 504 h in the data set “Acute toxicity in mice” (setting [1]) and in “Acute toxicity in mice” (setting [2]) were > 500 mg/kg and > 1000 mg/kg, respectively.
As to `CCOc1ccc(/C=C/C(=O)c2c(OC)cc(OC)cc2OP(=O)(O)O)cc1` [4-ethoxy-2',4'-dimethoxy-6'-(phosphonooxy)chalcone], the IC50 in the data set with rhinovirus HGP lay in the range of 0.006 to 0.02 µg/mL (≈ 0.0147 to 0.049 µM). Besides, the values for the LD50 at 504 h in the data set “Acute toxicity in mice” (setting [1]) and in the data set “Acute toxicity in mice” (setting [2]) were > 500 mg/kg and > 1000 mg/kg, respectively. Further, the soluble in water result in the data set “Solubility in water” was “soluble in water”.
